The numbers were not newly measured in PMC12005229, “Final results from the phase Ia/Ib study of the novel bromodomain and extra-terminal domain inhibitor, BI 894999, in patients with advanced solid tumors or diffuse large B-cell lymphoma” (ESMO Open, 2025), which cites them from elsewhere.

Data set [1] deals with patients with relapsed/refractory acute myeloid leukemia. More on the design: method as in PMID 33934351. Conditions: 44 patients with relapsed/refractory acute myeloid leukemia; cited from earlier work.
For data set [2], the system named is patients with relapsed/refractory DLBCL. More on the design: method as in PMID 34581757. Conditions: in combination with venetoclax and rituximab, 39 patients with relapsed/refractory DLBCL; cited from earlier work.

With `CCS(=O)(=O)Nc1ccc(Oc2ccc(F)cc2F)c(-c2cn(C)c(=O)c3[nH]ccc23)c1` [mivebresib], the “efficacy of combination with venetoclax compared with monotherapy” value in data set [1] is “higher efficacy in the combination group”.
Take `Cc1sc2c(c1C)C(c1ccc(Cl)cc1)=N[C@@H](CC(=O)NCCCN1CCN(C)CC1)c1nnc(C)n1-2` [RO6870810]: in data set [2], the complete responses is on record as 20.5% and the overall response rate is on record as 38.5%.
